The AC50 is the midpoint of the concentration-response curve, whichever way the signal moves.

Active and inactive are the calls of the source.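 The calls were made as follows: active = AC50, the dose giving half-maximal effect, exceeds a fixed cutoff for a compound that rescues yeast growth under heat; inactive = the rest, inconclusive results apart.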

For the assay, the system named is S. cerevisiae Burl-1 ts mutant growth, BacTiter-Glo, 38.5C 24 h. Nature of the assay: restored growth of temperature-sensitive Burl-1 yeast – whole organism, S. cerevisiae, Burl-1 ts mutant, luminescence, counter-screen for SUMOylation pathway inhibitor project, dose response (AID 463199). On the technique in general: A counterscreen serves to expose hits that act by an unwanted route or on another target.
Turning to `CCN(C(=O)Cn1nc(C)c([N+](=O)[O-])c1C)c1c(N)n(Cc2ccccc2)c(=O)[nH]c1=O`, the AC50 was > 42 µM (inactive).

`CCc1nnc(NC(=O)CSc2ccc(-c3ccc(-n4cccn4)cc3)nn2)s1`: the AC50 is > 42 µM (inactive).

On to `O=C(O)Cc1sc(Nc2ccccc2)nc1-c1cccs1`, for which the AC50 was > 42 µM (inactive).

In the case of `COc1ccc(NC(=O)Cn2nnc(C(=O)Nc3ccc(F)c(Cl)c3)c2N)cc1`, the AC50 was > 42 µM (inactive).

Regarding `COC(=O)CSc1ccc(S(=O)(=O)N2CCCCCC2)cc1[N+](=O)[O-]`, the AC50 is > 42 µM (inactive).

In the case of `CC1CCN(Cc2nc3c(c(=O)n(C)c(=O)n3C)n2CCc2ccccc2)CC1`, the AC50 was > 42 µM (inactive).

On to `COc1ccccc1N1CCN(C(=O)c2ccc(-c3ccccc3)cc2)CC1`, for which the AC50 was > 42 µM (inactive).

Consider `CC(C)(C)NC(=O)CC1C(=O)NCCN1Cc1c(F)cccc1Cl` (stereo unspecified), for which the concentration at half-maximal activity (AC50) was 37.4 µM.

In the case of `CCOc1ccc(C)cc1S(=O)(=O)n1nc(C)cc1C`, the AC50 is > 42 µM (inactive).

Take `Cc1nnc(C)n1/N=C/c1cc2ccccc2nc1Cl`: the AC50 was > 42 µM (inactive).

For the compound `CCOC(=O)N1CCN(S(=O)(=O)c2ccc(Br)s2)CC1`, the AC50 was > 42 µM (inactive).

With `CCOC(=O)c1ccc(NC(=O)c2nc[nH]c2C(=O)N2CCc3ccccc3C2)cc1`, the AC50 was > 42 µM (inactive).

On to `Cc1ccc2nc(NC(=O)C3CCN(S(=O)(=O)c4cccnc4)CC3)sc2c1`, for which the AC50 is > 42 µM (inactive).

In the case of `CC(=O)Nc1cccc(OCC(=O)NS(=O)(=O)c2ccc(C)cc2)c1`, the AC50 was > 42 µM (inactive).

As for `Cc1sc(NC(=O)c2ccco2)c(C(c2ccc(F)cc2)N2CCN(C)CC2)c1C` (stereo unspecified), the AC50 was > 42 µM (inactive).

Regarding `COc1cc(C)ccc1OCCCOc1ccccc1Br`, the AC50 is > 42 µM (inactive).

Turning to `Cn1c(=O)c2c(ncn2CC(=O)OCC(=O)Nc2ccc(Cl)cc2)n(C)c1=O`, the AC50 is > 42 µM (inactive).

For `Cc1cc(C)c(NC(=O)CNC(=O)c2cc([N+](=O)[O-])ccc2N2CCOCC2)c(C)c1`, the AC50 is > 42 µM (inactive).

Consider `COc1ccc(Cn2nnnc2CN2CCN(c3ccc(OC)cc3)CC2)cc1`, for which the AC50 is > 42 µM (inactive).

For `COc1cc(C(=O)N/N=C/c2ccccn2)cc(OC)c1OC`, the AC50 is > 42 µM (inactive).

For `O=C(Nc1cccc(O)c1)C(Cc1ccccc1)N1C(=O)c2cccc3cccc(c23)C1=O` (stereo unspecified), the AC50 is > 42 µM (inactive).

As to `Fc1ccc(-c2cc(C(F)(F)F)nc(NCc3cccs3)n2)cc1`, the AC50 is > 42 µM (inactive).

As for `Cc1cc(Cl)c2oc(C(=O)NC3CCC(O)CC3)c(C)c2c1` (stereo unspecified), the AC50 is > 42 µM (inactive).

In the case of `COc1ccc(C(=O)NCC(=O)Nc2ccccc2)cc1OC`, the AC50 is > 42 µM (inactive).

Turning to `CN(C(=O)CSc1nc(-c2ccccc2)c(-c2ccccc2)o1)C1CCS(=O)(=O)C1` (stereo unspecified), the AC50 is > 42 µM (inactive).

Turning to `Oc1c(Br)cc(Br)cc1/C=N/N1CCN(Cc2ccccc2)CC1`, the AC50 is > 42 µM (inactive).

Consider `CC(=O)c1ccc(N2CCN(CC(=O)Nc3cc(C)on3)CC2)cc1`, for which the AC50 was > 42 µM (inactive).

`COCCN(C(=O)c1csnn1)C(C(=O)NC1CCCCC1)c1ccccc1` (stereo unspecified): the AC50 is > 42 µM (inactive).

As to `CCCCC(O)(CCCC)C(=O)NN(C(=O)OC)c1ccc(C)cc1`, the AC50 is > 42 µM (inactive).

For `C=C(C)C(=O)OC1(C(F)(F)F)Oc2cc(C)ccc2NC1=O` (stereo unspecified), the AC50 is > 42 µM (inactive).

With `Cc1ccc(/C(N)=N/OC(=O)/C=C/c2ccccc2)cc1`, the AC50 is > 42 µM (inactive).

Turning to `CCCN1C(=O)c2ccc(C(=O)Nc3nccs3)cc2C1=O`, the AC50 is > 42 µM (inactive).

`O=C(NCC1CCCO1)C1CC(c2ccc(Cl)c(Cl)c2)=NO1` (stereo unspecified): the AC50 is > 42 µM (inactive).

For the compound `CC(C)c1onc(C(=O)N(C)Cc2ccccc2)c1[N+](=O)[O-]`, the AC50 is > 42 µM (inactive).

In the case of `Cc1ccc(C)c(S(=O)(=O)n2cnc3ccccc32)c1`, the AC50 was > 42 µM (inactive).

As to `CCCNC(=O)Cn1nc(C)n2c(cc3cc(F)ccc32)c1=O`, the AC50 is > 42 µM (inactive).

`O=C(Cn1nc(C(F)(F)F)c2c1CCCC2)N1CCOCC1`: the AC50 was > 42 µM (inactive).

Turning to `COc1ccc(NC(=O)CN(C)C(=O)/C=C/c2cn(-c3ccccc3)nc2-c2ccc(C)cc2)cc1`, the AC50 was > 42 µM (inactive).

Consider `CCn1c(SCC(=O)Nc2nc(-c3ccccc3)cs2)nnc1-c1ccccc1`, for which the AC50 is > 42 µM (inactive).

On to `Cn1c(SCC(=O)Nc2ccc(N3CCOCC3)c(Cl)c2)nnc1-c1ccccc1`, for which the AC50 was > 42 µM (inactive).

For the compound `C=CC[N+]1(CC#Cc2ccccc2)CCCC1`, the AC50 was > 42 µM (inactive).

Take `CCOc1ccc(N2CC(C(=O)OC)CC2=O)cc1` (stereo unspecified): the AC50 is > 42 µM (inactive).

Take `CCOC(=O)NC1(Nc2ccc(C)cc2)Oc2ccccc2O1`: the AC50 is > 42 µM (inactive).

Take `CCOc1ccc(Cl)cc1S(=O)(=O)N1CCC(C(=O)NCc2cccnc2)CC1`: the AC50 was > 42 µM (inactive).

Consider `CC(C)CC(=O)Nc1ccc(C(=O)CN2C(=O)NC3(CCOc4ccccc43)C2=O)cc1` (stereo unspecified), for which the AC50 was > 42 µM (inactive).

With `CCOc1ccc(/C=N/NC(=O)c2ccc(CSc3nc4ccccc4[nH]3)cc2)cc1`, the AC50 is > 42 µM (inactive).

Take `COc1ccc2c(c1)[C@H]1[C@H](CO2)[C@H](c2ccccc2)[C@]2(C)C(=O)Nc3cc(F)ccc3C(=O)N12`: the AC50 was > 42 µM (inactive).

For `COC(=O)CNC(=O)CSc1ccccn1`, the AC50 is > 42 µM (inactive).

With `CCNC(=S)NNC(=O)c1ccc(=O)n(Cc2ccccc2)c1`, the AC50 was > 42 µM (inactive).

For the compound `C/C(=N\N1CCN(Cc2ccccc2Cl)CC1)c1ccc([N+](=O)[O-])cc1`, the AC50 was > 42 µM (inactive).

For the compound `CCOC1(OCC)C(c2ccc(Cl)cc2)C(C#N)(C#N)C1(OCC)OCC` (stereo unspecified), the AC50 is > 42 µM (inactive).

Consider `O=C(NC1CCCCC1)c1ccc2c(=O)n(CC3CCCO3)c(=O)[nH]c2c1` (stereo unspecified), for which the AC50 was > 42 µM (inactive).

In the case of `CCOc1ncccc1C(=O)OCC(=O)N(CC)c1ccccc1`, the AC50 was > 42 µM (inactive).

Take `N#Cc1c(Cn2cncn2)nc(=O)n(-c2ccc(Cl)cc2)c1N`: the AC50 is > 42 µM (inactive).

As for `COc1cccc(-c2nn(-c3ccccc3)cc2/C=C(/NC(=O)c2ccccc2)C(=O)O)c1`, the AC50 is > 42 µM (inactive).

With `CC(C)=CC(=O)N1CCCC(N2CCN(c3ccc(F)cc3)CC2)C1` (stereo unspecified), the AC50 is 2.02 µM.

As to `CC1CCCN(C(=O)Cc2ccc(F)cc2)C1` (stereo unspecified), the AC50 is > 42 µM (inactive).

Turning to `CCc1cc2c(=O)c(-c3ccc(F)cc3)c(C(F)(F)F)oc2cc1OCC(=O)O`, the AC50 is > 42 µM (inactive).

For `CCNC(=O)C1CC(=O)N(Cc2ccc3c(c2)OCO3)C(=Nc2ccc(F)cc2)S1` (stereo unspecified), the AC50 is > 42 µM (inactive).

As to `COc1ccccc1NS(=O)(=O)c1cc(Cl)ccc1OC`, the AC50 is > 42 µM (inactive).

`N[C@@H](Cc1ccc(O)c(I)c1)C(=O)O`: the AC50 was > 42 µM (inactive).

As for `C=CCn1c(CCC)nc2ccccc21`, the AC50 is > 42 µM (inactive).

On to `CC(C)N=C(NS(=O)(=O)NC(=O)c1ccccc1)c1ccccc1`, for which the AC50 is > 42 µM (inactive).

Regarding `CC(C)C(OC(=O)CN1C(=O)COc2ccccc21)C(=O)NC1CCCC1` (stereo unspecified), the AC50 was > 42 µM (inactive).

For the compound `CCn1c(N2CCN(C(=O)C34CC5CC(CC(C5)C3)C4)CC2)nc2ccccc21`, the AC50 was > 42 µM (inactive).

For `COc1ccc(OC)c(NC(=O)CN(C)S(=O)(=O)c2ccc(Cl)cc2)c1`, the AC50 was > 42 µM (inactive).

For the compound `CC(=O)Nc1nn(C)c2nc3ccc(C)cc3cc12`, the AC50 is > 42 µM (inactive).

With `CCNCc1nc2cc(Cl)ccc2c(=O)[nH]1`, the AC50 is > 42 µM (inactive).

On to `O=C(NCc1ccccc1Cl)c1ccc2c(c1)OCO2`, for which the AC50 is > 42 µM (inactive).

On to `Cc1cc(C)nc(-n2nc(C)cc2NC(=O)CNCc2ccccc2)n1`, for which the AC50 is > 42 µM (inactive).

In the case of `Cc1ccc(NC(=O)/C=N/OCC(=O)NCc2ccccc2Cl)cc1`, the AC50 was > 42 µM (inactive).

For the compound `CCCCCCCCc1nc(SCC(C)=O)n[nH]1`, the AC50 is > 42 µM (inactive).

As to `CC(=O)NC1CCCN(O)C(=O)/C=C(\C)CCOC(=O)C(NC(C)=O)CCCN(O)C(=O)/C=C(\C)CCOC(=O)C(NC(C)=O)CCCN(O)C(=O)/C=C(\C)CCOC1=O` (stereo unspecified), the AC50 was > 42 µM (inactive).

For the compound `CCOP(=O)(OCC)C(NC(=O)c1cccc(C)c1)C(Cl)(Cl)Cl` (stereo unspecified), the AC50 is > 42 µM (inactive).

As to `Cc1nnc(NC(=O)c2ccc(-c3cccc(C(F)(F)F)c3)o2)s1`, the AC50 was > 42 µM (inactive).

Consider `Cc1cc(S(=O)(=O)NCC(C)C)ccc1OCC(=O)N1CCOCC1`, for which the AC50 was > 42 µM (inactive).

On to `O=C(O)c1ccc(CNC(=O)c2ccccc2NC(=O)c2ccc([N+](=O)[O-])cc2)cc1`, for which the AC50 was > 42 µM (inactive).

In the case of `CCOC(=O)c1ccccc1NC(=O)C1CC(=O)N(C2CCCCC2)C1` (stereo unspecified), the AC50 is > 42 µM (inactive).

Take `CN(C)c1oc(-c2ccccc2Cl)nc1S(=O)(=O)c1ccccc1`: the AC50 was > 42 µM (inactive).

On to `O=[N+]([O-])c1ccc(N/N=C/c2cccc(O)c2)cc1`, for which the AC50 was > 42 µM (inactive).

For the compound `CCOC(=O)c1ccc(CNC(=O)Cn2nnc(-c3ccc(C)cc3)n2)o1`, the AC50 is > 42 µM (inactive).

On to `COC(CNC(=O)c1cn(C)c2ccc(S(=O)(=O)N3CCOCC3)cc2c1=O)OC`, for which the AC50 was > 42 µM (inactive).

Consider `COc1cc(CNCCN2CCOCC2)ccc1OCc1ccccc1Cl`, for which the AC50 is > 42 µM (inactive).

`Cc1cc(NC(=O)c2ccc3c(c2)C(=O)N(C(C)(C)C)C3=O)no1`: the AC50 is > 42 µM (inactive).

In the case of `CCc1noc(C)c1C(=O)Nc1nc(-c2ccc(F)cc2)c(C)s1`, the AC50 was > 42 µM (inactive).

In the case of `CCCN1C(=O)c2[nH]nc(-c3cc(Cl)c(C)cc3O)c2C1c1ccc(O)c(OC)c1` (stereo unspecified), the AC50 is > 42 µM (inactive).

For the origin of these results see PubChem BioAssay AID463199 (Broad Institute, 2010).
